The values that follow come from patent US11453671B2, “Pyrazolopyrimidine inhibitors of JAK kinases and uses thereof” (Genentech, Inc., priority 2020, dated 2022).

Where two headings read alike, the source gives them in different places.

Test [1] relates to JAK1 pathway: P-STAT6 in TF-1 human erythroleukemia cells + IL-13. The experiment in a line: P-STAT6 TF-1+Interleukin-13 (IL-13) assay. It counts as cell-based. The conditions noted are these: IL-13 stimulation, read-out: Cellular JAK1 PSTAT6 TF-1 + IL13 IC50. Here is the method:
(§1) TF-1 human erythroleukemia cells (ATCC®; Manassas, Va.; Catalog No. CRL-2003™) were grown in Roswell Park Memorial Institute (RPMI) medium supplemented with 10% heat-inactivated fetal bovine serum (FBS), 2 ng/mL granulocyte-macrophage colony-stimulating factor, 1×non-essential amino acids (NEAA), and 1 mM sodium pyruvate. The day before the assay, the cultures were transferred to Opti-MEM™, 1×NEAA, 1 mM sodium pyruvate, and 0.5% charcoal-stripped FBS (starve medium). Inhibitor stock solutions (5 mM in DMSO) were serially diluted 1:2 in DMSO to generate a 10-point concentration titration (at 500×test concentration), which was further diluted by a 50-fold dilution in Assay Medium (RPMI containing 1×NEAA and 1 mM sodium pyruvate) to generate a 10×concentration titration (in 2% DMSO). The cells (300,000 cells/well in 35 μL of Assay Medium) were seeded in 384-well Greiner plates. Diluted inhibitor at 10×concentration (5 μL) was added to the cells and the plates were incubated for 30 minutes at 37° C. in a humidified incubator. Cells were stimulated with the human recombinant cytokine at the respective EC90 concentrations, as previously determined for each individual lot. For the phosphorylated signal transducer and activator of transcription 6 (P-STAT6) TF-1+Interleukin-13 (IL-13) assay, 10 μL of 250 ng/mL IL-13 (R&D Systems; Minneapolis, Minn.) was added to the cells, which were then incubated for 10 minutes at 37° C. For the P-STAT5 TF-1+Erythropoietin (EPO) assay, 10 μL of 110 IU/mL EPO (Gibco Life Technologies, Catalog No. PHC2054) was added to the cells, which were then incubated for 30 min at 37° C. For both assays, the incubation was followed by addition to the cells of 5 μL of ice-cold 10× cell lysis buffer (Cell Signaling Technologies; Danvers, Mass.; Catalog No. 9803S) containing 1 mM phenylmethylsulfonyl fluoride (PMSF). Assay plates were frozen at −80° C. for a minimum of 1 horn. In the IL-13 assay, P-STAT6 was measured by coating goat anti-rabbit (GAR) plates (Meso Scale Discovery [MSD]; Rockville, Md.; Catalog No. MSD L21RA-1) with rabbit anti-human total STAT6 antibody (Cell Signaling Technologies; Catalog No. 9362S), incubating the cell lysates in the coated plates overnight at 4° C., and then detecting with mouse anti-P-STAT6 (Tyr641) Clone 16E12 antibody (MilliporeSigma; Burlington, Mass.; Catalog No. 05-590, custom labeled by MSD with SULFO-tag) using standard MSD plate processing, washing, and detection protocols. In the EPO assay, P-STAT5 was detected using the phospho-STAT5a,b Whole Cell Lysate Kit (MSD; Catalog No. K150IGD-1). The electrochemiluminescence (ECL) signal of wells was read on the MESO SECTOR S600 (MSD) reader.

The subject of test [2] is JAK2 pathway: P-STAT5 in TF-1 human erythroleukemia cells + EPO. The experiment in a line: P-STAT5 TF-1+Erythropoietin (EPO) assay. The class given is cell-based. The conditions noted are these: EPO stimulation, read-out: Cellular JAK2 PSTAT5 TF-l + EPO IC50. The method, then:
as §1

The IC50 is the concentration at which inhibition is half-maximal. Consider `CC(CO)S(=O)(=O)c1ccc(OC(F)F)c(-c2nn(C)cc2NC(=O)c2cnn3cccnc23)c1` (single isomer, unassigned) [Example 23, N-[3-[2-(difluoromethoxy)-5-(2-hydroxy-1-methyl-ethyl)sulfonyl-phenyl]-1-methyl-pyrazol-4-yl]pyrazolo[1,5-a]pyrimidine-3-carboxamide], for which the IC50 turned out to be 0.02 µM in test [1] (Homo sapiens, TF-1, TF-1 cells) and 0.022 µM in test [2] (Homo sapiens, TF-1, TF-1 cells).

On to `Cn1cc(NC(=O)c2cnn3cccnc23)c(-c2cc(S(=O)(=O)C3CCCNC3)ccc2OC(F)F)n1` (single isomer, unassigned) [Example 37, N-[3-[2-(difluoromethoxy)-5-(3-piperidylsulfonyl)phenyl]-1-methyl-pyrazol-4-yl]pyrazolo[1,5-a]pyrimidine-3-carboxamide], for which the values for the IC50 in test [1] (TF-1 cells) and in test [2] (TF-1 cells) were 0.051 µM and 0.038 µM, respectively.

In the case of `C[C@@H](O)CS(=O)(=O)c1ccc(OC(F)F)c(-c2nn(C)cc2NC(=O)c2cnn3cccnc23)c1` (stereo in doubt) [Example 25, N-[3-[2-(difluoromethoxy)-5-[rac-(2R)-2-hydroxypropyl]sulfonyl-phenyl]-1-methyl-pyrazol-4-yl]pyrazolo[1,5-a]pyrimidine-3-carboxamide], the IC50 in test [1] (Homo sapiens, TF-1, TF-1 cells) was 0.02 µM; in test [2] (Homo sapiens, TF-1, TF-1 cells), 0.039 µM.

Regarding `Cn1cc(NC(=O)c2cnn3cccnc23)c(-c2cc(S(=O)(=O)C3CCC3)ccc2OC(F)F)n1` [Example 2, N-[3-[5-cyclobutylsulfonyl-2-(difluoromethoxy)phenyl]-1-methyl-pyrazol-4-yl]pyrazolo[1,5-a]pyrimidine-3-carboxamide], the concentration for half-maximal inhibition (IC50) in test [1] (Homo sapiens, TF-1, TF-1 cells) was 0.014 µM; in test [2] (Homo sapiens, TF-1, TF-1 cells) it was 0.012 µM.

Consider `Cn1cc(NC(=O)c2cnn3cccnc23)c(-c2cc(S(=O)(=O)CCO)ccc2OC(F)F)n1` [Example 5, N-[3-[2-(difluoromethoxy)-5-(2-hydroxyethylsulfonyl)phenyl]-1-methyl-pyrazol-4-yl]pyrazolo[1,5-a]pyrimidine-3-carboxamide], for which the IC50 is 0.016 µM in test [1] (Homo sapiens, TF-1, TF-1 cells) and 0.029 µM in test [2] (Homo sapiens, TF-1, TF-1 cells).

Consider `CN(C)CCS(=O)(=O)c1ccc(OC(F)F)c(-c2nn(C)cc2NC(=O)c2cnn3cccnc23)c1` [Example 7, N-[3-[2-(difluoromethoxy)-5-[2-(dimethylamino)ethylsulfonyl]phenyl]-1-methyl-pyrazol-4-yl]pyrazolo[1,5-a]pyrimidine-3-carboxamide], for which the IC50 in test [1] (Homo sapiens, TF-1, TF-1 cells) stood at 0.021 µM; in test [2] (Homo sapiens, TF-1, TF-1 cells), 0.022 µM.

With `COc1cccc(S(=O)(=O)c2ccc(OC(F)F)c(-c3nn(C)cc3NC(=O)c3cnn4cccnc34)c2)c1` [Example 12, N-[3-[2-(difluoromethoxy)-5-(3-methoxyphenyl)sulfonyl-phenyl]-1-methyl-pyrazol-4-yl]pyrazolo[1,5-a]pyrimidine-3-carboxamide], the IC50 stood at 0.0087 µM in test [1] (Homo sapiens, TF-1, TF-1 cells) and 0.0091 µM in test [2] (Homo sapiens, TF-1, TF-1 cells).

As to `Cn1cc(NC(=O)c2cnn3cccnc23)c(-c2cc(S(=O)(=O)C3COC3)ccc2OC(F)F)n1` [Example 13, N-[3-[2-(difluoromethoxy)-5-(oxetan-3-ylsulfonyl)phenyl]-1-methyl-pyrazol-4-yl]pyrazolo[1,5-a]pyrimidine-3-carboxamide], the IC50 in test [1] (Homo sapiens, TF-1, TF-1 cells) was 0.034 µM; in test [2] (Homo sapiens, TF-1, TF-1 cells), 0.028 µM.

Take `Cn1cc(NC(=O)c2cnn3cccnc23)c(-c2cc(S(=O)(=O)C3CC3)ccc2OC(F)F)n1` [Example 22, N-[3-[5-cyclopropylsulfonyl-2-(difluoromethoxy)phenyl]-1-methyl-pyrazol-4-yl]pyrazolo[1,5-a]pyrimidine-3-carboxamide]: the concentration for half-maximal inhibition (IC50) in test [1] (Homo sapiens, TF-1, TF-1 cells) was 0.0046 µM; in test [2] (Homo sapiens, TF-1, TF-1 cells), 0.014 µM.

For `CS(=O)(=O)c1ccc(OC(F)F)c(-c2nn(CC#N)cc2NC(=O)c2cnn3cccnc23)c1` [Example 28, N-[1-(cyanomethyl)-3-[2-(difluoromethoxy)-5-methylsulfonyl-phenyl]pyrazol-4-yl]pyrazolo[1,5-a]pyrimidine-3-carboxamide], the IC50 in test [1] (Homo sapiens, TF-1, TF-1 cells) was determined as 0.0031 µM; in test [2] (Homo sapiens, TF-1, TF-1 cells), 0.026 µM.
